Reference: PubChem BioAssay (NCI)
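Cultured in 96-well plates, cells were exposed to test compound for 48 hours across five concentrations. GI50 is the concentration that inhibits growth by half. The concentration for full growth arrest is given as TGI.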

Tests used:
Test in all cases: inhibition of tumour cell growth, NCI panel, 48 h
NCI-H226 lung = tested on: NCI-H226 lung
OVCAR-3 ovarian = tested on: OVCAR-3 ovarian
SNB-19 CNS = tested on: SNB-19 CNS
MALME-3M melanoma = tested on: MALME-3M melanoma
M14 melanoma = tested on: M14 melanoma
HCT-116 colon = tested on: HCT-116 colon
UO-31 renal = tested on: UO-31 renal
OVCAR-8 ovarian = tested on: OVCAR-8 ovarian
OVCAR-5 ovarian = tested on: OVCAR-5 ovarian
SR leukemia = tested on: SR leukemia

Structure (SMILES)	TGI (NCI-H226 lung) [µM]	TGI (OVCAR-3 ovarian) [µM]	TGI (SNB-19 CNS) [µM]	TGI (MALME-3M melanoma) [µM]	TGI (M14 melanoma) [µM]	TGI (HCT-116 colon) [µM]	TGI (UO-31 renal) [µM]	TGI (OVCAR-8 ovarian) [µM]	GI50 (NCI-H226 lung) [µM]	GI50 (OVCAR-3 ovarian) [µM]	GI50 (OVCAR-5 ovarian) [µM]	TGI (OVCAR-5 ovarian) [µM]	GI50 (MALME-3M melanoma) [µM]	GI50 (M14 melanoma) [µM]	GI50 (HCT-116 colon) [µM]	GI50 (UO-31 renal) [µM]	GI50 (SR leukemia) [µM]	TGI (SR leukemia) [µM]	GI50 (OVCAR-8 ovarian) [µM]	GI50 (SNB-19 CNS) [µM]
CC(C)(C)OC(=O)N[C@H]1CC(=O)c2ccccc2N(CC(=O)O)C1=O	> 100	> 100	> 100	37.1	> 100	75	> 100	> 100	–	–	–	–	–	–	–	–	–	–	–	–
CN(C)C1C(=O)C(C(N)=O)=C(O)C2(O)C(=O)C3=C(O)c4c(O)cccc4C(C)(O)C3CC12.[Cl][Sb]([Cl])[Cl] (stereo unspecified)	22	12.4	–	4.6	16.6	12.2	16.1	13.1	3.33	3.62	7.29	26.1	1.94	3.82	3.33	2.62	2.88	7.36	3.37	–
Cc1ccc2ccc3c4ccccc4ccc3c2c1	> 100	67.6	> 100	54.3	> 100	> 100	> 100	> 100	30.3	25.5	28.8	95.6	22.1	28.6	31.2	23.3	–	–	32.9	26.7
Cc1ccc(-n2nc(C(OC3OC(CO)C(O)C(O)C3O)C(O)CO)c3nc4cc(C)c(C)cc4nc32)cc1 (stereo unspecified)	–	> 100	> 100	> 100	> 100	> 100	> 100	> 100	–	–	–	> 100	–	–	–	–	–	–	–	–
N#Cc1ccccc1Sc1ccccc1N	71.6	–	> 100	> 100	–	–	> 100	> 100	–	–	–	> 100	–	–	–	–	–	> 100	–	–
N#Cc1c(-c2ccccc2)c(-c2ccccc2)cc2c(=O)c3ccc(Cl)cc3[nH]c12	> 100	> 100	> 100	> 100	–	> 100	> 100	> 100	–	–	–	> 100	–	–	–	–	–	> 100	–	–
CCCC(O)[C@@]1(CC)CC(C)C(O)(C2(C)C[C@H](C)[C@@H](C(CC)C(=O)C(C)[C@@H](O)[C@H](C)C3OC(O)(C(CC)C(=O)O)[C@@H](C)C(O)C3CC)O2)O1 (stereo partly specified)	2.99	2.62	3.15	0.392	2.15	1.6	3.18	6.05	–	–	–	5.35	–	–	–	–	–	–	–	–
CCCCCCCCCCCCCCCC(=O)OCC1OC(n2cc(F)c(=O)[nH]c2=O)C(NC(=O)OCc2ccccc2)C(O)C1O (stereo unspecified)	–	33.8	32.4	9.44	33.1	30.4	35.2	37.2	–	–	–	39.8	–	–	–	–	–	–	–	–
COc1ccc(/C=C/C(=O)c2c(-c3ccccc3)nn(C)c(=O)c2N2CCCCC2)cc1	–	–	86.5	–	66	23.6	34.7	> 100	–	–	–	–	–	–	–	–	–	–	–	–
O=C(O)c1ccccc1NCn1nc(-c2ccccc2O)oc1=S	> 100	> 100	> 100	–	> 100	54.1	> 100	> 100	86.6	> 100	> 100	> 100	–	46.3	26	> 100	–	–	> 100	> 100
